From US20100137313A1 (ASTRAZENECA AB, priority 2008, published 2010)

Molecular target: S. pneumoniae Topoisomerase IV ATPase (ParE) (Streptococcus pneumoniae serotype 4, UniProt Q59961)
Experiment: S. pneumoniae Topoisomerase IV ATPase inhibition
Assay type: biochemical
Conditions: values marked * are an average of two or more data points, read-out: % Inh (13 μM) of S. pneumoniae Topoisomerase IV ATPase
Experimental: S. pneumoniae Topoisomerase IV ATPase Inhibition Activity: Compounds may be tested for inhibition of S. pneumoniae ParE ATPase activity using an ammonium molybdate/malachite green-based phosphate detection assay (Lanzetta, P. A., L. J. Alvarez, P. S. Reinach, and O. A. Candia, 1979, 100: 95-97). Assays are performed in multiwell plates in 30 μl reactions containing: 20 mM Tris buffer pH 8.0, 50 mM ammonium acetate, 8.0 mM magnesium chloride, 0.5 mM ethylenediaminetetraacetic acid, 5% glycerol, 5 mM 1,4-Dithio-DL-threitol, 0.005% Brij-35, 5 μg/ml sheared salmon sperm DNA, 1.25 nM S. pneumoniae ParE, 160 μM ATP, and test compound in dimethylsulfoxide. Reactions are quenched with 30 μl of ammonium molybdate/malachite green detection reagent containing 1.2 mM malachite green hydrochloride, 8.5 mM ammonium molybdate tetrahydrate, and 1 M hydrochloric acid. Plates are read in an absorbance plate reader at 650 nm and percent inhibition values are calculated using dimethylsulfoxide (2%)-containing reactions as 0% inhibition and EDTA-containing ([…]) reactions as 100% inhibition controls. An IC50 measurement of compound potency for each compound can be determined from reactions performed in the presence of 10 different compound concentrations.
Many of the compounds of the invention were tested in an assay substantially similar to the assays described above for measuring the inhibition of E.coli GyrB ATPase, E. coli Topoisomerase IV ATPase, S. aureus GyrB ATPase, and S. pneumoniae Topoisomerase IV ATPase, and had IC50 values of <200 μM in one or more assays.

Chain of S. pneumoniae Topoisomerase IV ATPase (ParE) (Q59961 whole entry): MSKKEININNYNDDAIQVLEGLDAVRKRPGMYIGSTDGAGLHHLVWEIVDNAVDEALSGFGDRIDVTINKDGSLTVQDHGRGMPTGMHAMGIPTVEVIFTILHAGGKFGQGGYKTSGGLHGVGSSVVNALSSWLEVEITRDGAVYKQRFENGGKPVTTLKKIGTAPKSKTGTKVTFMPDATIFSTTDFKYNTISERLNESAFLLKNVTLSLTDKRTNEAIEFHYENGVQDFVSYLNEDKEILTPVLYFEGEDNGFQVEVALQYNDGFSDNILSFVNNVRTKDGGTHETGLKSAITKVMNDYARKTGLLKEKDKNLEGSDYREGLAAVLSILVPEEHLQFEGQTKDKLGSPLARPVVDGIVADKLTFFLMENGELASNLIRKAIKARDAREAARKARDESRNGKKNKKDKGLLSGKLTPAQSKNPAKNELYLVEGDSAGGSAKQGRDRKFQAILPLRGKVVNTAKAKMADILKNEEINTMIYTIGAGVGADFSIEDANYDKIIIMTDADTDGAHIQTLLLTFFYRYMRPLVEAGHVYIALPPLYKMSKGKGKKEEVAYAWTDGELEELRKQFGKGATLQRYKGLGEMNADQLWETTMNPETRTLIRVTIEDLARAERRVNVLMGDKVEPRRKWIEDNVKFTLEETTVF

SMILES	inhibition at 13 µM [%]
Cc1nccn1-c1nc(Nc2ccc(F)c(Cl)c2)ncc1-c1cncnc1 [Example 85, N-(3-chloro-4-fluorophenyl)-4-(2-methyl-1H-imidazol-1-yl)-5,5′-bipyrimidin-2-amine]	66.8
Cc1cc(C)cc(Nc2ncc(-c3cncc(C(=O)O)c3)c(N3CCOCC3)n2)c1 [Example 389, 5-[2-(3,5-Dimethyl-phenylamino)-4-morpholin-4-yl-pyrimidin-5-yl]-nicotinic acid]	85
Cc1cc(C)cc(Nc2ncc(-c3cc(C(=O)O)cnc3OCCN(C)C)c(-n3nc(C(F)(F)F)cc3C)n2)c1 [Example 1145, 6-(2-(dimethylamino)ethoxy)-5-(2-(3,5-dimethylphenylamino)-4-(5-methyl-3-(trifluoromethyl)-1H-pyrazol-1-yl)pyrimidin-5-yl)nicotinic acid]	100
COc1cc(Nc2ncc(-c3cc(C(=O)O)cn(C)c3=O)c(-n3ccc(C(F)(F)F)n3)n2)cc(OC)c1 [Example 592, 5-(2-(3,5-dimethoxyphenylamino)-4-(3-(trifluoromethyl)-1H-pyrazol-1-yl)pyrimidin-5-yl)-1-methyl-6-oxo-1,6-dihydropyridine-3-carboxylic acid]	100
CC(C)N1CCN(CCn2cc(-c3cnc(Nc4ccc(F)c(Cl)c4)nc3-n3ccc(C(F)(F)F)n3)cc(C(=O)O)c2=O)CC1 [Example 1089, 5-(2-(3-chloro-4-fluorophenylamino)-4-(3-(trifluoromethyl)-1H-pyrazol-1-yl)pyrimidin-5-yl)-1-(2-(4-isopropylpiperazin-1-yl)ethyl)-2-oxo-1,2-dihydropyridine-3-carboxylic acid]	100
O=C(O)c1cncc(-c2cnc(Nc3ccc(F)c(Cl)c3)nc2N2CCOC(CO)C2)c1 (centres unmarked) [Example 1060]	87
COC(=O)c1cc2ccc(-c3cnc(Nc4ccc(F)c(Cl)c4)nc3N3CCOCC3)cc2[nH]1 [Example 1053, Methyl 6-(2-(3-chloro-4-fluorophenylamino)-4-morpholinopyrimidin-5-yl)-1H-indole-2-carboxylate]	0
O=C(O)c1cccc(-c2cnc(Nc3ccc(F)c(Cl)c3)nc2N2CCOCC2)c1 [Example 487, 3-{2-[(3-chloro-4-fluorophenyl)amino]-4-(morpholin-4-yl)pyrimidin-5-yl}benzoic acid]	84
CCS(=O)(=O)NC(=O)c1cc(-c2cnc(Nc3cc(OC)cc(OC)c3)nc2-n2ccc(C(F)(F)F)n2)cn(CCOC)c1=O [Example 1164]	100
CCOC(=O)/C=C/c1cccc(-c2cnc(Nc3ccc(F)c(Cl)c3)nc2NCc2cnn(C)c2)c1 [Example 168, (E)-ethyl 3-(3-(2-(3-chloro-4-fluorophenylamino)-4-((1-methyl-1H-pyrazol-4-yl)methylamino)pyrimidin-5-yl)phenyl)acrylate]	66.4
COc1cc(Nc2ncc(-c3cnc(OC)c(-c4noc(=S)[nH]4)c3)c(-n3nc(C(F)(F)F)cc3C)n2)cc(OC)c1 [Example 974, 3-(5-(2-(3,5-dimethoxyphenylamino)-4-(5-methyl-3-(trifluoromethyl)-1H-pyrazol-1-yl)pyrimidin-5-yl)-2-methoxypyridin-3-yl)-1,2,4-oxadiazol-5(4H)-thione]	89
CCOC(=O)c1cncc(-c2cnc(Nc3ccc(F)c(Cl)c3)nc2N2CCN(CCOC)CC2)c1 [Example 150, ethyl 5-(2-(3-chloro-4-fluorophenylamino)-4-(4-(2-methoxyethyl)piperazin-1-yl)pyrimidin-5-yl)nicotinate]	53.3
CCOC(=O)/C=C/c1cccc(-c2cnc(Nc3ccc(F)c(Cl)c3)nc2N2CCN(C(=O)N(C)C)CC2)c1 [Example 164, (E)-ethyl 3-(3-(2-(3-chloro-4-fluorophenylamino)-4-(4-(dimethylcarbamoyl)piperazin-1-yl)pyrimidin-5-yl)phenyl)acrylate]	47
COc1cc(C)cc(Nc2ncc(-c3cc(C(=O)NS(C)(=O)=O)c(=O)n(C)c3)c(-n3ccc(C(F)(F)F)n3)n2)c1 [Example 1173, 5-{2-[(3-methoxy-5-methylphenyl)amino]-4-[3-(trifluoromethyl)-1H-pyrazol-1-yl]pyrimidin-5-yl}-1-methyl-N-(methylsulfonyl)-2-oxo-1,2-dihydropyridine-3-carboxamide]	100
CN(C)CCCNc1nc(Nc2ccc(F)c(Cl)c2)ncc1-c1cccc(NS(=O)(=O)N(C)C)c1 [Example 11, N′-[3-(2-[(3-chloro-4-fluorophenyl)amino]-4-{[3-(dimethylamino)propyl]amino}pyrimidin-5-yl)phenyl]-N,N-dimethylsulfonamide]	18.2
O=C(O)c1cncc(-c2cnc(Nc3ccc(F)c(Cl)c3)nc2NCc2ccccn2)c1 [Example 222, 5-{2-(3-Chloro-4-fluoro-phenylamino)-4-[(pyridin-2-ylmethyl)-amino]-pyrimidin-5-yl]-nicotinic acid]	76.2
O=C(O)/C=C/c1cccc(-c2cnc(Nc3ccc(F)c(Cl)c3)nc2N[C@H]2CCOC2)c1 [Example 942, (S, E)-3-(3-(2-(3-chloro-4-fluorophenylamino)-4-(tetrahydrofuran-3-ylamino)pyrimidin-5-yl)phenyl)acrylic acid]	100
O=C(O)/C=C/c1cccc(-c2cnc(Nc3ccc(F)c(Cl)c3)nc2N2CCOC(CO)C2)c1 (centres unmarked) [Example 1059]	85
CNC(=O)c1cncc(-c2cnc(Nc3cc(OC)cc(OC)c3)nc2-n2ccc(C(F)(F)F)n2)c1 [Example 678, 5-{2-[(3,5-dimethoxyphenyl)amino]-4-[3-(trifluoromethyl)-1H-pyrazol-1-yl]pyrimidin-5-yl}-N-methylpyridine-3-carboxamide]	100
Cc1cc(C(F)(F)F)nn1-c1nc(Nc2ccc(F)c(Cl)c2)ncc1-c1cncc(C(N)=O)c1 [Example 924, 5-(2-(3-chloro-4-fluorophenylamino)-4-(5-methyl-3-(trifluoromethyl)-1H-pyrazol-1-yl)pyrimidin-5-yl)nicotinamide]	97
CN(C)CCNc1nc(Nc2ccc(F)c(Cl)c2)ncc1-c1cncc(C(=O)O)c1 [Example 220, 5-[2-(3-Chloro-4-fluoro-phenylamino)-4-(2-dimethylamino-ethylamino)-pyrimidin-5-yl]-nicotinic acid]	79
CN(C)CCCNc1nc(Nc2ccc(F)c(Cl)c2)ncc1-c1cccc(C(=O)O)c1 [Example 31, 3-(2-[(3-chloro-4-fluorophenyl)amino]-4-{[3-(dimethylamino)propyl]-amino}pyrimidin-5-yl)benzoic acid]	86
COc1ncc(-c2cnc(Nc3cc(C)cc(C)c3)nc2-n2nc(C(F)(F)F)cc2C)cc1C(=O)NS(C)(=O)=O [Example 899, 5-(2-(3,5-dimethylphenylamino)-4-(5-methyl-3-(trifluoromethyl)-1H-pyrazol-1-yl)pyrimidin-5-yl)-2-methoxy-N-(methylsulfonyl)nicotinamide]	97
OC1CCN(c2nc(Nc3ccc(F)c(Cl)c3)ncc2-c2cncnc2)C1 (centres unmarked) [Example 66, 1-[2-[(3-chloro-4-fluorophenyl)amino]-5-pyrimidin-5-ylpyrimidin-4-yl]pyrrolidin-3-ol]	62.1
COc1cc(C#N)cc(Nc2ncc(-c3cncc(C(=O)O)c3)c(-n3nc(C(F)(F)F)cc3C)n2)c1 [Example 733, 5-{2-[(3-cyano-5-methoxyphenyl)amino]-4-[5-methyl-3-(trifluoromethyl)-1H-pyrazol-1-yl]pyrimidin-5-yl}pyridine-3-carboxylic acid]	100
CCOC(=O)c1cncc(-c2cnc(Nc3ccc(F)c(Cl)c3)nc2N[C@H]2CC[C@H](O)CC2)c1 [Example 128, ethyl 5-[2-[(3-chloro-4-fluorophenyl)amino]-4-[(trans-4-hydroxycyclohexyl)amino]pyrimidin-5-yl]pyridine-3-carboxylate]	-16.2
Cc1cc(C)n(-c2nc(Nc3ccc(F)c(Cl)c3)ncc2-c2cccc(/C=C/C(=O)O)c2)n1 [Example 321, (2E)-3-(3-{2-[(3-chloro-4-fluorophenyl)amino]-4-(3,5-dimethyl-1H-pyrazol-1-yl)pyrimidin-5-yl}phenyl)prop-2-enoic acid]	83.7
COc1cc(Nc2ncc(-c3cccc(/C=C/C(=O)O)c3)c(-n3ccc(C(F)(F)F)n3)n2)cc(OC)c1 [Example 615, (2E)-3-(3-{2-[(3,5-dimethoxyphenyl)amino]-4-[3-(trifluoromethyl)-1H-pyrazol-1-yl]pyrimidin-5-yl}phenyl)prop-2-enoic acid]	100
CCCNc1nc(Nc2ccc(F)c(Cl)c2)ncc1-c1cncc(C(=O)O)c1 [Example 218, 5-[2-(3-Chloro-4-fluoro-phenylamino)-4-propylamino-pyrimidin-5-yl]-nicotinic acid]	80.9
